Experimental data as given in patent publication US12357711B2, “PSMA binding dual mode radiotracer and therapeutic” (Technische Universität München, priority 2019, dated 2025).

System: SCID mice
Experiment: Preclinical dosimetry from biodistribution in mice, extrapolated to 70-kg Standard Adult (OLINDA/EXM 1.0)
Format: in vivo
Conditions: […] bladder voiding interval
Description: 3-5 mice were injected per timepoint with a mean 25.6±3.6 MBq of 18F-rhPSMA-7 and 28.5±4.8 MBq of 18F-rhPSMA-7.3, respectively. Mice, severe combined immunodeficiency (SCID) were used for the experiments.
Mice were sacrificed at the following timepoints: • ^18F-rhPSMA-7: 10, 20, 40, 60, 120 and 180 minutes after administration. • ^18F-rhPSMA-7.3: 10, 60, 120, 180 and 300 minutes after administration.
Urine, blood, heart, lung, spleen, pancreas, liver, stomach (emptied), small intestine (emptied), large intestine (emptied), kidneys, bladder, testis, fat, muscle (partial, femoral), femur, tail and brain. Urine was collected with a pipette in the CO2 gas chamber. In case of missing urination in the chamber the bladder was aspirated with an insulin syringe. Blood was withdrawn instantly after sacrifice with an insulin syringe from the heart. All other tissues and organs were dissected and transferred directly in plastic containers.
The counting rates of measurement samples were automatically corrected for decay. The radioactivity distribution ratios (unit: percentage of the injected dose (% ID) in the measurement samples were determined using the equation below. The sum of the counting rates from all measurement samples obtained from one mouse was designated as the counting rate for administrated radioactivity.
The radioactivity distribution ratio per unit weight of the measurement sample (unit: % ID/g) excluding urine and feces samples was determined by using the equation below. The weight of the measurement sample was determined by subtraction of the empty measurement container from the container including the sample.
For consistency of statistical calculations for each radiotracer the same number of time-points for ^18F-rhPSMA-7 and ^18F-rhPSMA-7.3 was used. Therefore, for ^18F-rhPSMA-7 the 10 min and 20 min time points were combined creating a 15 min endpoint.
The time-integral of activity for the accumulation in the significant source organs (AUCs) were generated both with numerical integration and physical decay according to J Juan et al., Journal of Pharmaceutical Sciences, 1993, 82:762-763.
In brief, to calculate a human dosimetry from the biodistribution in the mice, an extrapolation was necessary to account for the differences between the animals and humans. Normal-organ radiation doses were estimated for the 70-kg Standard Adult anatomic model using time-depending organ activity concentrations (in percent of the injected dose per gram, % ID/g) and total-body activities measured in the biodistribution studies in mice.
Tissue activity concentrations in mice were converted to tissue fractional activities in the 70-kg Standard Adult using the relative fractional organ masses in the Standard Adult and the “standard” 25-gramm mouse. Time-dependent total-body activity was fit to an exponential function and the difference between the injected activity and the total-body activity was assumed to be excreted to the urine because activity concentrations in the liver and GI tracer were low at all time points studied.
Organ residence time was calculated by numerical integration using the trapezoidal rule and the rest-of-body ^18F residence times was calculated as the difference between the total-body residence time and the sum of the organ and urine residence times. The bladder contents residence time was estimated using the dynamic voiding model in the OLINDA/EXM 1.0 dosimetry software. Finally, the Standard Adult mean organ dose equivalents (in mSv/MBq) and effective dose (also in mSv/MBq) were then calculated using OLIN DA/EXM 1.0.
Final calculation of radiation absorbed dose and dosimetry from biodistribution in mice: The tissues or organs in which a significant accumulation of radioactivity occurs (i.e., source organ) were kidney, spleen, lung, liver and heart. With respect to activity accumulation and clearance, a rapid clearance from blood and clearance to urine but relatively slow build-up in kidney was found.

[^19F][^natGa]D/L-Dap-R/S-DOTAGA-rhPSMA7 [rhPSMA7-rac]
Adrenals ED Cont.: 3.90E−05 mSv/MBq | Adrenals EDE Cont.: 0.00E000 mSv/MBq | Adrenals dose Alpha: 0.00E000 mSv/MBq | Adrenals dose Beta: 1.95E−03 mSv/MBq | Adrenals dose Photon: 5.85E−03 mSv/MBq | Adrenals dose Total: 7.80E−03 mSv/MBq | Brain ED Cont.: 2.24E−05 mSv/MBq | Brain EDE Cont.: 0.00E000 mSv/MBq | Brain dose Alpha: 0.00E000 mSv/MBq | Brain dose Beta: 1.95E−03 mSv/MBq | Brain dose Photon: 2.54E−03 mSv/MBq | Brain dose Total: 4.49E−03 mSv/MBq | Breasts ED Cont.: 2.12E−04 mSv/MBq | Breasts EDE Cont.: 6.36E−04 mSv/MBq | Breasts dose Alpha: 0.00E000 mSv/MBq | Breasts dose Beta: 1.95E−03 mSv/MBq | Breasts dose Photon: 2.29E−03 mSv/MBq | Breasts dose Total: 4.24E−03 mSv/MBq | Gallbladder Wall ED Cont.: 0.00E000 mSv/MBq | Gallbladder Wall EDE Cont.: 0.00E000 mSv/MBq | Gallbladder Wall dose Alpha: 0.00E000 mSv/MBq | Gallbladder Wall dose Beta: 1.95E−03 mSv/MBq | Gallbladder Wall dose Photon: 5.54E−03 mSv/MBq | Gallbladder Wall dose Total: 7.49E−03 mSv/MBq | Heart Wall ED Cont.: 0.00E000 mSv/MBq | Heart Wall EDE Cont.: 0.00E000 mSv/MBq | Heart Wall dose Alpha: 0.00E000 mSv/MBq | Heart Wall dose Beta: 8.82E−04 mSv/MBq | Heart Wall dose Photon: 3.54E−03 mSv/MBq | Heart Wall dose Total: 4.42E−03 mSv/MBq | Kidneys ED Cont.: 3.25E−04 mSv/MBq | Kidneys EDE Cont.: 3.91E−03 mSv/MBq | Kidneys dose Alpha: 0.00E000 mSv/MBq | Kidneys dose Beta: 4.70E−02 mSv/MBq | Kidneys dose Photon: 1.80E−02 mSv/MBq | Kidneys dose Total: 6.51E−02 mSv/MBq | LLI Wall ED Cont.: 1.93E−03 mSv/MBq | LLI Wall EDE Cont.: 9.66E−04 mSv/MBq | LLI Wall dose Alpha: 0.00E000 mSv/MBq | LLI Wall dose Beta: 1.95E−03 mSv/MBq | LLI Wall dose Photon: 1.41E−02 mSv/MBq | LLI Wall dose Total: 1.61E−02 mSv/MBq | Liver ED Cont.: 2.13E−04 mSv/MBq | Liver EDE Cont.: 0.00E000 mSv/MBq | Liver dose Alpha: 0.00E000 mSv/MBq | Liver dose Beta: 6.35E−04 mSv/MBq | Liver dose Photon: 3.63E−03 mSv/MBq | Liver dose Total: 4.27E−03 mSv/MBq | Lungs ED Cont.: 5.16E−04 mSv/MBq | Lungs EDE Cont.: 5.16E−04 mSv/MBq | Lungs dose Alpha: 0.00E000 mSv/MBq | Lungs dose Beta: 1.25E−03 mSv/MBq | Lungs dose Photon: 3.04E−03 mSv/MBq | Lungs dose Total: 4.30E−03 mSv/MBq | Muscle ED Cont.: 3.84E−05 mSv/MBq | Muscle EDE Cont.: 0.00E000 mSv/MBq | Muscle dose Alpha: 0.00E000 mSv/MBq | Muscle dose Beta: 1.95E−03 mSv/MBq | Muscle dose Photon: 5.73E−03 mSv/MBq | Muscle dose Total: 7.68E−03 mSv/MBq | Osteogenic Cells ED Cont.: 8.93E−05 mSv/MBq | Osteogenic Cells EDE Cont.: 2.68E−04 mSv/MBq | Osteogenic Cells dose Alpha: 0.00E000 mSv/MBq | Osteogenic Cells dose Beta: 4.18E−03 mSv/MBq | Osteogenic Cells dose Photon: 4.75E−03 mSv/MBq | Osteogenic Cells dose Total: 8.93E−03 mSv/MBq | Ovaries ED Cont.: 3.09E−03 mSv/MBq | Ovaries EDE Cont.: 3.87E−03 mSv/MBq | Ovaries dose Alpha: 0.00E000 mSv/MBq | Ovaries dose Beta: 1.95E−03 mSv/MBq | Ovaries dose Photon: 1.35E−02 mSv/MBq | Ovaries dose Total: 1.55E−02 mSv/MBq | Pancreas ED Cont.: 4.04E−05 mSv/MBq | Pancreas EDE Cont.: 0.00E000 mSv/MBq | Pancreas dose Alpha: 0.00E000 mSv/MBq | Pancreas dose Beta: 1.95E−03 mSv/MBq | Pancreas dose Photon: 6.13E−03 mSv/MBq | Pancreas dose Total: 8.08E−03 mSv/MBq | Red Marrow ED Cont.: 8.16E−04 mSv/MBq | Red Marrow EDE Cont.: 8.16E−04 mSv/MBq | Red Marrow dose Alpha: 0.00E000 mSv/MBq | Red Marrow dose Beta: 1.39E−03 mSv/MBq | Red Marrow dose Photon: 5.41E−03 mSv/MBq | Red Marrow dose Total: 6.80E−03 mSv/MBq | Skin ED Cont.: 4.93E−05 mSv/MBq | Skin EDE Cont.: 0.00E000 mSv/MBq | Skin dose Alpha: 0.00E000 mSv/MBq | Skin dose Beta: 1.95E−03 mSv/MBq | Skin dose Photon: 2.98E−03 mSv/MBq | Skin dose Total: 4.93E−03 mSv/MBq | Small Intestine ED Cont.: 5.18E−05 mSv/MBq | Small Intestine EDE Cont.: 0.00E000 mSv/MBq | Small Intestine dose Alpha: 0.00E000 mSv/MBq | Small Intestine dose Beta: 1.95E−03 mSv/MBq | Small Intestine dose Photon: 8.40E−03 mSv/MBq | Small Intestine dose Total: 1.04E−02 mSv/MBq | Spleen ED Cont.: 1.30E−04 mSv/MBq | Spleen EDE Cont.: 1.56E−03 mSv/MBq | Spleen dose Alpha: 0.00E000 mSv/MBq | Spleen dose Beta: 1.59E−02 mSv/MBq | Spleen dose Photon: 1.01E−02 mSv/MBq | Spleen dose Total: 2.61E−02 mSv/MBq | Stomach Wall ED Cont.: 8.40E−04 mSv/MBq | Stomach Wall EDE Cont.: 0.00E000 mSv/MBq | Stomach Wall dose Alpha: 0.00E000 mSv/MBq | Stomach Wall dose Beta: 1.95E−03 mSv/MBq | Stomach Wall dose Photon: 5.05E−03 mSv/MBq | Stomach Wall dose Total: 7.00E−03 mSv/MBq | Testes ED Cont.: 0.00E000 mSv/MBq | Testes EDE Cont.: 0.00E000 mSv/MBq | Testes dose Alpha: 0.00E000 mSv/MBq | Testes dose Beta: 1.95E−03 mSv/MBq | Testes dose Photon: 9.69E−03 mSv/MBq | Testes dose Total: 1.16E−02 mSv/MBq | Thymus ED Cont.: 2.59E−05 mSv/MBq | Thymus EDE Cont.: 0.00E000 mSv/MBq | Thymus dose Alpha: 0.00E000 mSv/MBq | Thymus dose Beta: 1.95E−03 mSv/MBq | Thymus dose Photon: 3.24E−03 mSv/MBq | Thymus dose Total: 5.18E−03 mSv/MBq | Thyroid ED Cont.: 2.59E−04 mSv/MBq | Thyroid EDE Cont.: 1.55E−04 mSv/MBq | Thyroid dose Alpha: 0.00E000 mSv/MBq | Thyroid dose Beta: 1.95E−03 mSv/MBq | Thyroid dose Photon: 3.23E−03 mSv/MBq | Thyroid dose Total: 5.18E−03 mSv/MBq | Total Body ED Cont.: 0.00E000 mSv/MBq | Total Body EDE Cont.: 0.00E000 mSv/MBq | Total Body dose Alpha: 0.00E000 mSv/MBq | Total Body dose Beta: 2.37E−03 mSv/MBq | Total Body dose Photon: 5.39E−03 mSv/MBq | Total Body dose Total: 7.77E−03 mSv/MBq | ULI Wall ED Cont.: 4.63E−05 mSv/MBq | ULI Wall EDE Cont.: 0.00E000 mSv/MBq | ULI Wall dose Alpha: 0.00E000 mSv/MBq | ULI Wall dose Beta: 1.95E−03 mSv/MBq | ULI Wall dose Photon: 7.31E−03 mSv/MBq | ULI Wall dose Total: 9.26E−03 mSv/MBq | Urinary Bladder Wall ED Cont.: 1.77E−02 mSv/MBq | Urinary Bladder Wall EDE Cont.: 2.12E−02 mSv/MBq | Urinary Bladder Wall dose Alpha: 0.00E000 mSv/MBq | Urinary Bladder Wall dose Beta: 2.45E−01 mSv/MBq | Urinary Bladder Wall dose Photon: 1.08E−01 mSv/MBq | Urinary Bladder Wall dose Total: 3.54E−01 mSv/MBq | Uterus ED Cont.: 1.40E−04 mSv/MBq | Uterus EDE Cont.: 1.68E−03 mSv/MBq | Uterus dose Alpha: 0.00E000 mSv/MBq | Uterus dose Beta: 1.95E−03 mSv/MBq | Uterus dose Photon: 2.61E−02 mSv/MBq | Uterus dose Total: 2.80E−02 mSv/MBq
